Where a chain is given by its changes, count along the chain named. Like-named read-outs stand apart in the source and are kept apart here.
What was measured:
[1] = biological target: T1, PfFNT (Plasmodium falciparum, UniProt O77389); assay: Fluorescence cross-correlation spectroscopy (FCCS) competition binding to solubilized PfFNT-GFP
T1 construct: expressed in transfected cells; membranes solubilized
T1 sequence (O77389 1-309): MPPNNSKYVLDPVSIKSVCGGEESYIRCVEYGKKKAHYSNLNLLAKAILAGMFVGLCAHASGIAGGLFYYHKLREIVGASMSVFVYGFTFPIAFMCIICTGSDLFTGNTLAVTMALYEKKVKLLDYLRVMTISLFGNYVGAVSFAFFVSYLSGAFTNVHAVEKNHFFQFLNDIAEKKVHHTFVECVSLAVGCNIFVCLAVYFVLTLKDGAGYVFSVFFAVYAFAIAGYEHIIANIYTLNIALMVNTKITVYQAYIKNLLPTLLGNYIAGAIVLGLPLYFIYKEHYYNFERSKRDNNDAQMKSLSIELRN
Experimental: FCCS measurements were conducted and analyzed as before.[20],[30] Briefly, membranes of stably transfected cells expressing PfFNT with a C-terminal GFP (green) were solubilized. BH267.meta 2 fused with DY647 (red) was used as a tracer to monitor the binding of compounds in a competition assay. Assays were done in […] glass bottom plates (cat. no. PS96B-G175, SWISSCI, Switzerland) using a plate reader (Insight, Evotec Technologies, Germany) fitted with a U-Apo300 40× water immersion lens, NA 1.15 (Olympus, Japan). Excitation was done with an argon-ion laser (488 nm) and a helium–neon laser (633 nm). Fluorescence fluctuations were recorded 10 times for 5 s per sample and fitted using FCS+ plus Analyze (PerkinElmer software). Initially, IC50 values were determined from the concentration of the dual labeled complex titrated against a competitor in a range of 100 pM to 100 μM (Figure S1). Then, Ki values were calculated using the Cheng Prusoff equation[31] based on the previously determined KD value for the BH267.meta-DY647 tracer.[20]

[2] = biological target: T1, PfFNT; assay: Yeast-based PfFNT 14C-lactate transport assay; assay type: cell-based; conditions: 14C-lactate transport, PfFNT wild type; read-out: IC50 (transport, yeast)
Experimental: (§1) Lactate transport functionality of PfFNT was assayed as described before.[4] Briefly, Saccharomyces cerevisiae W303-1A jen1Δady2Δcells[32] (MATa, can1-100, ade2-loc, his3-11-15, leu2-3,-112, trp1-1-1, ura3-1, jen1::kanMX4, ady2::hphMX4) kindly provided by M. Casal expressing PfFNT was grown at 29 °C to an OD600 of 1 (±0.1). Harvested cells were resuspended to an OD600 of 50 (±5) in 50 mM HEPES/Tris, pH 6.8 (±0.1). 10–15 min prior to the assay, 80 μL of yeast suspension were added to 1 μL of DMSO with or without inhibitor in a 1.5 mL reaction tube at 18 °C. Twenty μL of L-lactate solution spiked with [1-^14C]-L-lactate (Hartmann Analytic) was added yielding a 1 mM inward gradient with 0.04 μCi label. Transport was stopped after 30 s by abrupt dilution with 1 mL of ice-cold water, vacuum filtration via GF/C filter membranes (Whatman), and washing with 7 mL of ice-cold water. The radio label was analyzed by liquid scintillation counting in 3 mL of scintillation cocktail (Rotiszint eco plus, Carl Roth) using a Packard TriCarb 2900 TR (PerkinElmer Inc.).
(§2) Transport assays in yeast were done in triplicate biological replicates. At least nine technical replicates were measured around the IC50 value, concentrations with no or full inhibition were determined from at least three technical replicates. EC50-values were determined from 2 to 4 biological replicates. IC50 and EC50 curves were fitted by the Hill equation with variable slope (Graph Pad Prism 10). Error bars denote ± SEM (for n ≥ 3) or ± range (for n = 2). For the EC50-value of 7a the error of the fitting of the curve is given. Cytotoxicity was determined from biological triplicates; error is shown as SEM.

[3] = system: Plasmodium falciparum 3D7 parasites; assay: P. falciparum 3D7 culture growth assay in erythrocytes (in vitro activity); assay type: cell-based; conditions: for activity at 0.05 µM / activity at 0.1 µM / activity at 0.2 µM: 48 h; for activity at 0.05 µM: read-out: % Growth at 50 nM (in vitro, 3D7); for activity at 0.1 µM: 100 nM compound, read-out: % Growth at 100 nM (in vitro, 3D7); for activity at 0.2 µM: 200 nM compound, read-out: % Growth at 200 nM (in vitro, 3D7)
Experimental: The parasitemia was measured using an LSR II FACS (BD Biosciences) as described.[34],[35] Growth was assessed as % of untreated control. EC50 curves were plotted using Graph Pad Prism.
as §2, with “EC50-values were determined from 2 to 4 biological replicates.” left out, “For the EC50-value of 7a the error of the fitting of the curve is given.” left out

[4] = Microsomal clearance and half-life; assay type: in vitro ADME, human; conditions: 1 μM compound, 0.4 mg mL^–1 protein
Experimental: (§3) Clearance, half-life and plasma protein binding were assayed at TGC LifeScience, Kolkata, India, as described before.[36] Test compounds were incubated in duplicate in 96-well plates at 1 μM concentration with pooled human liver microsomes in 0.1 M phosphate buffer, pH 7.4 (0.4 mg mL^–1 final protein concentration; XenoTech, Lenexa, KS) in the presence and absence of 1 mM NADPH. Metabolism reactions were stopped by addition of 300 μL of ice-cold acetonitrile containing carbamazepine at 0.0236 μg mL^–1 as an internal standard, collection and analysis of the supernatant by LC–MS/MS (Agilent Rapid Resolution HPLC, AB SCIEX 4500 MS). The relative loss of the test compound over time was used to determine the first order rate constant for calculation of the in vitro intrinsic clearance and half-life.[37] Plasma protein binding was determined by ultracentrifugation from pooled human plasma spiked with 5 μM test compound. Aliquots were transferred immediately (total plasma concentration) or after 1 h at 37 °C (protein bound fraction) to ice-cold acetonitrile containing 0.0236 μg mL^–1 carbamazepine as an internal standard, ultracentrifuged for 4 h at 37 °C (Beckman Optima L-80XP), and analyzed by LC–MS/MS (Agilent Rapid Resolution HPLC, AB SCIEX 4500 QTRAP MS).

[5] = Lipophilicity log D7.4 by HPLC (OECD guideline); assay type: physicochemical; conditions: RP-8 HPLC column (ZORBAX Eclipse XDB-C8), pH 7.4
Experimental: Lipophilicity was determined according to the OECD Guidelines for the Testing of Chemicals no. […]. Briefly, the test compounds plus 9 standards (4-acetylpyridine, acetanilide, acetophenone, methyl benzoate, ethyl benzoate, benzophenone, phenyl benzoate, diphenyl ether, triphenylamine) were separated by HPLC with UV detection at 220 nm (Waters HPLC 1525 with tunable absorbance detector 486) using an RP-8 column (Agilent Technologies ZORBAX Eclipse XDB-C8 4.6 × 150 mm, 5 μm) at 20 °C. Eluents A (20 mM ammonium formate, pH 7.4) and B (methanol) were used to generate a gradient profile of 80% A–100% B (0–35 min), 100% B (35–37 min), 100% B–80% A (37–42 min), and 80% A (42–55 min) at a flow rate of 0.8 mL min^–1. The dead time was determined via the injection peak caused by the solvent. The log D7.4 values were calculated by correlating the capacity factors with the known values of the standards via polynomial fitting.

[6] = system: albumin; assay: Plasma protein (albumin) binding by ultracentrifugation; assay type: in vitro ADME; conditions: pooled human plasma
Experimental: as §3

[7] = system: P. berghei; parameters: method as in PMID 37428074; conditions: all dosing regimens; cited from earlier work
[8] = system: Plasmodium falciparum 3D7 parasites; conditions: read-out: EC50 (in vitro, 3D7), cited from earlier work
[9] = biological target: T2, PfFNT G107S (Plasmodium falciparum, UniProt O77389, G107S); assay: Yeast-based 14C-lactate transport assay, PfFNT G107S resistance mutant; assay type: cell-based
T2 construct: expressed in transfected cells; host or cells: Saccharomyces cerevisiae (yeast transport assay; strain as for wild type, inferred from the shared method)
T2 sequence (O77389 1-309 G107S): T1 sequence (O77389 1-309) with G107S
Experimental: as §1, §2

[10] = biological target: T1, PfFNT; conditions: 14C-lactate transport, PfFNT wild type; ref Golldack[4] et al. 2017; read-out: IC50 (transport, yeast); cited from earlier work
[11] = Plasmodium falciparum, 3D7, Erythrocyte, 50 nM compound, % of untreated control
[12] = Plasmodium falciparum, 3D7, Erythrocyte, % of untreated control
[13] = competition against BH267.meta-DY647 tracer, Cheng Prusoff, read-out: Ki (FCCS, protein)

Row | Compound | Ki [1] [nM] | IC50 [2] [nM] | activity at 0.05 µM [3, 11] [%] | activity at 0.1 µM [3, 12] [%] | activity at 0.2 µM [3, 12] [%] | other results
1 | COc1cc(CNc2ccc(C(=O)/C=C(\O)C(F)(F)C(F)(F)F)cn2)cc(OC)c1OC [7q, 4,4,5,5,5-Pentafluoro-3-hydroxy-1-(6-((3,4,5-trimethoxybenzyl)amino)pyridin-3-yl)pent-2-en-1-one] | 49 ± 12 | 2110 ± 320 | 107 | 105 | 117 | 
2 | CCCN(C)c1ccc(C(=O)/C=C(\O)C(F)(F)C(F)(F)F)cn1 [7r, 4,4,5,5,5-Pentafluoro-3-hydroxy-1-(6-(methyl(propyl)amino)pyridin-3-yl)pent-2-en-1-one] | 98 ± 11 | 350 ± 80 | 114 |  | 96 | 
3 | CCN(CC)c1ccc(C(=O)/C=C(\O)C(F)(F)C(F)(F)F)cn1 [7s, 1-(6-(Diethylamino)pyridin-3-yl)-4,4,5,5,5-pentafluoro-3-hydroxypent-2-en-1-one] | 142 ± 24 | 380 ± 20 | 71 | 76 | 80 | 
4 | CCC(=O)Nc1ccc(C(=O)/C=C(\O)C(F)(F)C(F)(F)F)cn1 [8b, N-(5-(4,4,5,5,5-Pentafluoro-3-hydroxypent-2-enoyl)pyridin-2-yl)propionamide] | 27 ± 4 | 250 ± 20 | 17 | 10 | 4 | 
5 | O=C(/C=C(\O)C(F)(F)C(F)(F)F)c1ccc(NC(=O)c2ccccc2)nc1 [8c, N-(5-(4,4,5,5,5-Pentafluoro-3-hydroxypent-2-enoyl)pyridin-2-yl)benzamide] | 16 ± 2 | 370 ± 20 | 78 | 51 | 13 | 
6 | O=C(/C=C(\O)C(F)(F)C(F)(F)F)c1cccnc1 [compound 2, 4,4,5,5,5-Pentafluoro-3-hydroxy-1-(pyridin-3-yl)pent-2-en-1-one, reference compound] |  |  | > 90 |  |  | Ki [1, 13]: 35 ± 10 nM; human liver microsomes Clint [4]: 3.98 mL min^–1 kg^–1; half-life at 1 µM ([4]; human, pooled human liver microsomes, pH 7.4, read-out: human liver microsomes t1/2): 5.8 h; chromatographic logD [5]: 1.75; unbound fraction in plasma [6]: 8.76%; albumin binding ([6]; 5 μM): 91.24%; parasites eliminated [7]: > 99.7%; EC50 ([8]; ref Walloch[6] et al. 2020): 240 ± 10 nM; inhibition at 0.05 µM ([3]; Plasmodium falciparum, 3D7, Erythrocyte, 50 nM compound, 100 minus % growth, read-out: inhibitory activity at 50 nM (in vitro, 3D7)): < 10%
7 | O=C(/C=C(\O)C(F)(F)C(F)(F)F)c1cccc(O)c1 [compound 6, 4,4,5,5,5-Pentafluoro-3-hydroxy-1-(3-hydroxyphenyl)pent-2-en-1-one] | 26 ± 3 | 160 ± 10 |  |  |  | IC50 [9]: 6710 nM
8 | MMV007839 [compound 1, reference compound] |  |  |  |  |  | Ki [1, 13]: 83 ± 33 nM; EC50 ([8]; ref Golldack[4] et al. 2017): 140 ± 10 nM; % Growth at 50 nM (in vitro, 3D7) ([3]; 50 nM compound, % of untreated control): > 90%; inhibitory activity at 50 nM (in vitro, 3D7) ([3]; 50 nM compound, 100 minus % growth): < 10%; IC50 [10]: 170 ± 10 nM

From paper PMC11513924, “Addressing the Intracellular Vestibule of the Plasmodial Lactate Transporter PfFNT by p-Substituted Inhibitors Amplifies In Vitro Activity” (Journal of Medicinal Chemistry, 2024)
